Earlier results, collected in EP0454783B1, “SITE SPECIFIC IN-VIVO ACTIVATION OF THERAPEUTIC DRUGS” (Akzo Nobel N.V., priority 1989, dated 1990).

Molecular target: lysozyme (Gallus gallus, UniProt P00698)
Details: Imoto et al, 1972

Chain of lysozyme (P00698 19-147): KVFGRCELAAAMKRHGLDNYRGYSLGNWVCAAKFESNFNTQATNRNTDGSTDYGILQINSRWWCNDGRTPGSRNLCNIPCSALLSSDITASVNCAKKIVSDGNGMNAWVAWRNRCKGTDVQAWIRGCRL

## CC(=O)N[C@H]1[C@H](O[C@H]2[C@H](O)[C@@H](NC(C)=O)[C@H](O[C@H]3[C@H](O)[C@@H](NC(C)=O)C(O)O[C@@H]3CO)O[C@@H]2CO)O[C@H](CO)[C@@H](O[C@@H]2O[C@H](CO)[C@@H](O[C@@H]3O[C@H](CO)[C@@H](O[C@@H]4O[C@H](CO)[C@@H](O)[C@H](O)[C@H]4NC(C)=O)[C@H](O)[C@H]3NC(C)=O)[C@H](O)[C@H]2NC(C)=O)[C@@H]1O (stereo partly shown) [chitohexaose]
  fold higher rate of cleavage by lysozyme than chitotriose: 30,000 fold
